# Reference: paper PMC9291665, “Discovery and SAR analysis of 5-chloro-4-((substituted phenyl)amino)pyrimidine bearing histone deacetylase inhibitors” (Journal of Enzyme Inhibition and Medicinal Chemistry, 2022)
# What was measured:
# [1] = test system: Hela nucleus extract containing a mixture of HDAC isoforms; assay: HDAC enzyme inhibitory screening against Hela nucleus extract; assay type: biochemical; conditions: at concentration of 1.0 µM, mean of three experiments
# Experimental: The synthesised molecules were firstly screened against Hela nucleus extract containing a mixture of HDAC isoforms.
# All HDAC enzymes were purchased from BPS Bioscience. In short, 60 µL of recombinant HDAC enzyme solution was mixed with various concentrations of test compound (40 µL), and then incubated at 37 °C for 30 minutes. The reaction was terminated by adding 100 µL of imaging agent containing trypsin and trichostatin A (TSA). After standing for 20 min, the fluorescence intensity was measured at the excitation and emission wavelengths of 360 and 460 nm with a microplate reader. The inhibition rate was calculated from the fluorescence intensity readings of the test wells relative to the control wells, and the IC50 curve and value were determined by GraphPad Prism 6.0 software.
# K562 cells [2] = assay: In vitro antiproliferative assay (CCK-8), K562; assay type: cell-based; conditions: Homo sapiens, at concentration of 1.0 µM, mean of three experiments, read-out: K562 percentage inhibitory rate
# Experimental: (§1) The proliferation of cancer cells was tested by CCK-8 assay. Briefly, cells were seeded in 96-well plate with about 5 × 10^3 cells in each well. The cells were treated with tested compounds after 24 h of incubation. CCK-8 reagent ([…]) was added to each well after 72 h of incubation, and cells were incubated at 37 °C for 4 h. The light absorbance at 450 nm was measured by using an Opsys microplate reader (Dynex Technologies, Chantilly, VA, USA).
# MDA-MB-231 = assay: In vitro antiproliferative assay (CCK-8), MDA-MB-231; assay type: cell-based; conditions: Homo sapiens, CCK-8, 72 h
# Experimental: (§2) Compound L20 with good performances in both enzyme and K562 cell inhibitory tests were selected for further antiproliferative assay against various cell lines. K562, U266, U937, C6, Fadu, MDA-MB-231, MDA-MB-468, A549, A2780 and HepG2 cell lines were used in the cell-based anticancer evaluation of L20.
# as §1, with “USA). Results are illustrated as percent of cell viability normalised to DMSO-treated control cells.” for “USA).”
# MDA-MB-468 = assay: In vitro antiproliferative assay (CCK-8), MDA-MB-468; assay type: cell-based; conditions: Homo sapiens, CCK-8, 72 h
# Experimental: as §2
# as §1, with “USA). Results are illustrated as percent of cell viability normalised to DMSO-treated control cells.” for “USA).”
# K562 cells [3] = assay: Cell apoptosis analysis by flow cytometry (Annexin V-BV421 / 7-AAD); conditions: 24 h, control 1.14%
# Experimental: Cells were incubated with Annexin V-BV421 (Becton Dickinson, USA) and 7-AAD (Becton Dickinson, USA) double labelling for 30 min in the dark at room temperature and measured by flow cytometry (FACSAriaIII, Becton Dickinson, USA). The data was analysed using Flowjo-V10 software.
# H3122 = test system: H3122; set-up: method as in PMID 17185414, PMID 27144831; conditions: cited from earlier work
# H2228 = test system: H2228; set-up: method as in PMID 17185414, PMID 27144831; conditions: cited from earlier work
SMILES,HDACs percentage inhibitory rate [1] [%],inhibition at 1 µM (K562 cells [2]) [%],other results
"CC(C)S(=O)(=O)c1ccccc1Nc1nc(N2CCN(c3ccc(C(=O)NO)cc3)CC2)ncc1Cl [Compound L19, 4-(4-(5-chloro-4-((2-(isopropylsulfonyl)phenyl)amino)pyrimidin-2-yl)piperazin-1-yl)-N-hydroxybenzamide]",44.91 ± 4.97,21.3 ± 0.65,–
"CCc1ccc(Nc2nc(N3CCN(c4ccc(C(=O)NO)cc4)CC3)ncc2Cl)cc1 [Compound L3, 4–(4-(5-chloro-4-((4-ethylphenyl)amino)pyrimidin-2-yl)piperazin-1-yl)-N-hydroxybenzamide]",50.54 ± 0.21,19.5 ± 0.06,–
"O=C(NO)c1ccc(N2CCN(c3ncc(Cl)c(Nc4ccc(Cl)cc4)n3)CC2)cc1 [Compound L13, 4–(4-(5-chloro-4-((4-chlorophenyl)amino)pyrimidin-2-yl)piperazin-1-yl)-N-hydroxybenzamide]",52.44 ± 1.44,54.1 ± 2.34,–
"COc1ccc(Nc2nc(N3CCN(c4ncc(C(=O)NO)cn4)CC3)ncc2Cl)cc1OC [Compound L21, 2–(4-(5-chloro-4-((3,4-dimethoxyphenyl)amino)pyrimidin-2-yl)piperazin-1-yl)-N-hydroxypyrimidine-5-carboxamide]",58.95 ± 0.74,62.6 ± 2.45,–
"N#Cc1ccc(Nc2nc(N3CCN(c4ccc(C(=O)NO)cc4)CC3)ncc2Cl)cc1 [Compound L5, 4–(4-(5-chloro-4-((4-cyanophenyl)amino)pyrimidin-2-yl)piperazin-1-yl)-N-hydroxybenzamide]",48.33 ± 0.64,31.51 ± 0.09,–
"COc1cccc(Nc2nc(N3CCN(c4ccc(C(=O)NO)cc4)CC3)ncc2Cl)c1 [Compound L9, 4–(4-(5-chloro-4-((3-methoxyphenyl)amino)pyrimidin-2-yl)piperazin-1-yl)-N-hydroxybenzamide]",55.28 ± 0.15,50.8 ± 2.92,–
"O=C(NO)c1cnc(N2CCN(c3ncc(Cl)c(Nc4ccc(-c5ccccc5)cc4)n3)CC2)nc1 [Compound L22, 2–(4-(4-([1,1′-biphenyl]-4-ylamino)-5-chloropyrimidin-2-yl)piperazin-1-yl)-N-hydroxypyrimidine-5-carboxamide]",40.93 ± 0.50,37.1 ± 2.11,–
"Cc1ccc(Nc2nc(N3CCN(c4ccc(C(=O)NO)cc4)CC3)ncc2Cl)cc1 [Compound L2, 4–(4-(5-chloro-4-(p-tolylamino)pyrimidin-2-yl)piperazin-1-yl)-N-hydroxybenzamide]",47.98 ± 1.54,43.9 ± 0.81,–
"O=C(NO)c1ccc(N2CCN(c3ncc(Cl)c(Nc4ccccc4)n3)CC2)cc1 [Compound L1, 4–(4-(5-chloro-4-(phenylamino)pyrimidin-2-yl)piperazin-1-yl)-N-hydroxybenzamide]",50.54 ± 2.27,30.7 ± 0.32,–
"COc1cc(Nc2nc(N3CCN(c4ccc(C(=O)NO)cc4)CC3)ncc2Cl)cc(OC)c1 [Compound L6, 4–(4-(5-chloro-4-((3,5-dimethoxyphenyl)amino)pyrimidin-2-yl)piperazin-1-yl)-N-hydroxybenzamide]",59.74 ± 0.03,56.6 ± 0.11,–
"COc1cc(Nc2nc(N3CCN(c4ccc(C(=O)NO)cc4)CC3)ncc2Cl)cc(OC)c1OC [Compound L15, 4–(4-(5-chloro-4-((3,4,5-trimethoxyphenyl)amino)pyrimidin-2-yl)piperazin-1-yl)-N-hydroxybenzamide]",58.15 ± 2.02,58.6 ± 2.01,–
"O=C(NO)c1ccc(N2CCN(c3ncc(Cl)c(Nc4ccc(F)cc4)n3)CC2)cc1 [Compound L4, 4–(4-(5-chloro-4-((4-fluorophenyl)amino)pyrimidin-2-yl)piperazin-1-yl)-N-hydroxybenzamide]",53.89 ± 3.35,58.2 ± 1.05,–
"O=C(CCCCCCC(=O)Nc1ccccc1)NO [SAHA, Vorinostat, reference compound]",–,–,IC50 (MDA-MB-231): 3590 ± 240 nM; IC50 (MDA-MB-468): 4850 ± 230 nM; apoptotic rate of K562 cells (K562 cells [3]; 1 µM): 1.39%; apoptotic rate of K562 cells (K562 cells [3]; 2 µM): 3.36%; apoptotic rate of K562 cells (K562 cells [3]; 4 µM): 19.75%
"O=C(NO)c1ccc(N2CCN(c3ncc(Cl)c(Nc4cccc(I)c4)n3)CC2)cc1 [Compound L16, 4-(4-(5-chloro-4-((3-iodophenyl)amino)pyrimidin-2-yl)piperazin-1-yl)-N-hydroxybenzamide]",46.50 ± 4.74,37.1 ± 1.54,–
"CCOc1ccc(Nc2nc(N3CCN(c4ccc(C(=O)NO)cc4)CC3)ncc2Cl)cc1 [Compound L8, 4–(4-(5-chloro-4-((4-ethoxyphenyl)amino)pyrimidin-2-yl)piperazin-1-yl)-N-hydroxybenzamide]",49.32 ± 0.89,37.1 ± 1.54,–
"O=C(NO)c1ccc(N2CCN(c3ncc(Cl)c(Nc4ccc(I)cc4)n3)CC2)cc1 [Compound L17, 4-(4-(5-chloro-4-((4-iodophenyl)amino)pyrimidin-2-yl)piperazin-1-yl)-N-hydroxybenzamide]",54.51 ± 3.05,56.4 ± 2.16,–
COc1cc(N2CCC(N3CCN(C)CC3)CC2)ccc1Nc1ncc(Cl)c(Nc2ccccc2P(C)(C)=O)n1 [Brigatinib],–,–,GI50 (H3122): 4 nM; GI50 (H2228): 10 nM
"O=C(NO)c1ccc(N2CCN(c3ncc(Cl)c(Nc4cccc(Br)c4)n3)CC2)cc1 [Compound L10, 4–(4–(4-((3-bromophenyl)amino)-5-chloropyrimidin-2-yl)piperazin-1-yl)-N-hydroxybenzamide]",51.50 ± 2.03,31.6 ± 1.12,–
"O=C(NO)c1ccc(N2CCN(c3ncc(Cl)c(Nc4ccc(F)c(Cl)c4)n3)CC2)cc1 [Compound L18, 4-(4-(5-chloro-4-((3-chloro-4-fluorophenyl)amino)pyrimidin-2-yl)piperazin-1-yl)-N-hydroxybenzamide]",52.92 ± 2.00,31.3 ± 0.92,–
"O=C(NO)c1ccc(N2CCN(c3ncc(Cl)c(Nc4ccc(-c5ccccc5)cc4)n3)CC2)cc1 [Compound L14, 4–(4–(4-([1,1′-biphenyl]-4-ylamino)-5-chloropyrimidin-2-yl)piperazin-1-yl)-N-hydroxybenzamide]",46.80 ± 1.07,35.2 ± 1.21,–
"COc1ccc(Nc2nc(N3CCN(c4ccc(C(=O)NO)cc4)CC3)ncc2Cl)cc1OC [Compound L7, 4–(4-(5-chloro-4-((3,4-dimethoxyphenyl)amino)pyrimidin-2-yl)piperazin-1-yl)-N-hydroxybenzamide]",58.37 ± 1.55,63.9 ± 1.12,–
"O=C(NO)c1ccc(N2CCN(c3ncc(Cl)c(Nc4cccc(Cl)c4)n3)CC2)cc1 [Compound L12, 4–(4-(5-chloro-4-((3-chlorophenyl)amino)pyrimidin-2-yl)piperazin-1-yl)-N-hydroxybenzamide]",32.74 ± 0.38,50.6 ± 1.86,–
Cc1cc(Nc2ncc(Cl)c(Nc3ccccc3S(=O)(=O)C(C)C)n2)c(OC(C)C)cc1C1CCNCC1 [Ceritinib],–,–,GI50 (H3122): 62 nM; GI50 (H2228): 121 nM
"O=C(NO)c1ccc(N2CCN(c3ncc(Cl)c(Nc4ccc(Br)cc4)n3)CC2)cc1 [Compound L11, 4–(4–(4-((4-bromophenyl)amino)-5-chloropyrimidin-2-yl)piperazin-1-yl)-N-hydroxybenzamide]",59.82 ± 4.01,60.9 ± 0.21,–
